Test results reported in patent US6166045A, “Torasemide of modification III” (Roche Diagnostics GmbH, priority 1998, dated 2000).
Like-named read-outs stand apart in the source and are kept apart here.

Experiments:
[1] = in vivo; cited from earlier work
[2] = tested on: sodium-potassium-2 chloride transport mechanism in the ascending limb of the loop of Henle; conditions: cited from earlier work
[3] = male versus female Wistar rats; P-450 oxidation products; cited from earlier work
[4] = literature (Acta Cryst. 1978), cited from earlier work
[5] = Water content after storing in relative humidity of 92% at 25° C.; type: physicochemical; conditions: 92% relative humidity, Mod. III depending on particle size
Experimental: Relevant data of the two most important crystal forms (modification I and III) of torasemide are summarized in Table 1. | Water content (%) after storing in relative 0.2 1.2 (depending | humidity of 92% at 25° C. on particle size

[6] = Heat of fusion / heat of transition (DSC); type: physicochemical; conditions: for Heat of fusion ± 95% - C.B.: heating rate 5K min^-1
Heat of solution = type: physicochemical; conditions: in I-butanol at 20° C.
Experimental: Relevant data of the two most important crystal forms (modification I and III) of torasemide are summarized in Table 1. | Heat of solution (kJ mol^-1) in I-butanol at 20° C. 36.1

True density = type: physicochemical
Experimental: One aspect of the present invention involves pure torasemide of modification III. It is believed that pure torasemide of modification III was previously unknown to the art. Torasemide of modification III can be characterized by a melting point of 155 to 158° C. (thermomicroscopy) and a true density of 1.302±0.009 g cm^-3 (versus 1.363±0.001 g cm^3 for modification I). In a preferred embodiment, the torasemide of modification III is pure. This term "pure" means that the torasemide contains less than about 1% of modification I and/or II, and less in any event than amounts of modification I which adversely effect the stability of modification III.
True density (g cm^-3) ± 95% - c.i.

[7] = prior art (U.S. Re 34,672 and 34,580); listed as modification I; cited from earlier work
[8] = Serum concentration of torasemide in rats after oral administration; type: in vivo, Wistar rat; conditions: male rats (FIG. 1); for Serum concentration compared with modification I: oral 3 mg per kilogram
Experimental: FIG. 1 is a plot of serum concentration levels in male rats of torasemide of modification I and modification III versus time after oral administration; and FIG. 2 is similar to FIG. 1, but reflects the serum concentrations in female rats. […] Therefore, both genders were tested to determine the concentration of torasemide in serum against the time after administration. The dose of torasemide was 3 mg per kilogram, administered orally. FIG. 1 is a graph illustrating the concentration in the serum of male rats of torasemide, as a result of administering modification I and modification III. FIG. 2 is a representation of the concentration of torasemide versus time after administration for the serum of female rats, treated the same as the male rats of FIG. 1.

[9] = Storage stability of the crystal modification; type: physicochemical; conditions: storage stable: tablet form, ambient conditions, less than 5% changing into another crystalline form over six months
Diuretic effect = conditions: in vivo

Cc1cccc(Nc2ccncc2S(=O)(=O)NC(=O)NC(C)C)c1 [Torasemide, 1-isopropyl-3-[(4-m-toluidino-3pyridyl)sulphonyl)urea]
Diuresis profile compared with other standard loop diuretics [1]: less intense initial diuresis and a sustained duration of action | Mechanism of action [2]: blocks the sodium-potassium-2 chloride transport mechanism in the ascending limb of the loop of Henle | Difference between male and female rats in excretion rate and metabolism [3]: significant differences

Cc1cccc(Nc2ccncc2S(=O)(=O)NC(=O)NC(C)C)c1 [Modification II]
True density ([4]; in g/cm3 (unit assumed)): 1.285

Cc1cccc(Nc2ccncc2S(=O)(=O)NC(=O)NC(C)C)c1 [Modification I]
Water content after storing in relative humidity of 92% at 25° C. ([5]; listed as Mod. I): 0.2% | Heat of fusion ± 95% - C.B. [6]: 37.2 ± 1.9 kJ/mol | Heat of solution (Heat of solution): 36.1 kJ/mol | True density ± 95% - c.i. (True density; listed as Mod. I): 1.363 ± 0.001 g cm^-3 | True density [4]: about 1.36 | Stability / rearrangement in tablets or on storage [7]: stable in tablets and did not rearrange again back into modification II

Cc1cccc(Nc2ccncc2S(=O)(=O)NC(=O)NC(C)C)c1 [Modification III]
Water content after storing in relative humidity of 92% at 25° C. ([5]; listed as Mod. III): 1.2% | Heat of transition ± 95% - C.B. ([6]; at about 159° C., the difference of the heats of fusion, ± 2.1 printed on next line): -82 kJ/mol | Heat of fusion ± 95% - C.B. ([6]; listed as Mod. III): 29.9 ± 0.9 kJ/mol | Heat of solution (Heat of solution; listed as Mod. III): 29.8 kJ/mol | True density ± 95% - c.i. (True density; listed as Mod. III): 1.302 ± 0.009 g cm^-3 | True density ± 95% - c.i. (True density; listed as modification III): 1.302±0.009 g cm^-3 | Serum concentration compared with modification I ([8]; 20 minutes after administration): more than twice the serum concentration as modification I | Serum concentration compared with modification I ([8]; 40 minutes after administration): almost twice the serum concentration as modification I | Appearance in the serum after oral administration ([8]; oral): rapid appearance | Stability of the crystal modification [9]: storage stable | Diuretic effect (Diuretic effect): effective diuretic
